Test results from ChEMBL document CHEMBL1201862, “PubChem BioAssay data set” (2004).
Several values for one entry are separate records, joined by “and”; a condition that tells them apart may be missing. Equal values may be shown once. Activity calls are given as the source filed them.

Legend:
[1] = HEK-293T viability loss after treatment – luminescence, T-cell screen hits, cytotoxicity control for TCR NF-kB inhibitor project, dose response (AID 489026); format: functional, cell-based;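 note: cells exposed to compound about 14 hours before the viability readout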
[2] = loss of viability in HepG2 cells – cell-based, CellTiter-Glo, cherry-picked, cytotoxicity control for Shn3 inhibitor project, dose response (AID 624134); format: functional
Fatty acid synthase = Fatty acid synthase (Homo sapiens, UniProt P49327); test: inhibition of human FAS-TE enzyme activity – biochemical, kinetic fluorescence intensity, dose response (AID 624326); format: functional;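 note: rate of fluorescence rise from hydrolysis of a fluorogenic O-methyl fluorescein ester substrate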
[3] = molecular target: T1, Zinc finger protein mex-5 (Caenorhabditis elegans, UniProt Q9XUB2); test: potency of MEX-5 RNA-binding blockers – biochemical, C. elegans, fluorescence polarization, dose response (AID 1960)
T1 sequence (Q9XUB2 whole entry): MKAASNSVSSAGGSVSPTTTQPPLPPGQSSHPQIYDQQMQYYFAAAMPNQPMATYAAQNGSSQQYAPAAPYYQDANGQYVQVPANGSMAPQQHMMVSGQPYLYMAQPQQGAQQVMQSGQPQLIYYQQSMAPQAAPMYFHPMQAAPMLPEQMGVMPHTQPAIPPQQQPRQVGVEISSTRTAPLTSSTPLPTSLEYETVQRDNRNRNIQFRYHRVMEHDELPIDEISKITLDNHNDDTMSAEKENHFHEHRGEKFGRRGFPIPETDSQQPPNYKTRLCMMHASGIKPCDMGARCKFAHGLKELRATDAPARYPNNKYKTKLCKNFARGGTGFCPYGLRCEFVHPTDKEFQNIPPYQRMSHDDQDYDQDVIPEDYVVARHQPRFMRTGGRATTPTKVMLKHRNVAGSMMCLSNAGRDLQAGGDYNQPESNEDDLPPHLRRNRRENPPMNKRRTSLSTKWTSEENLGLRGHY

[4] = Trypanosoma cruzi growth suppression in host cells – NIH3T3 host cells, beta-gal luminescence, confirmation (AID 2044); format: functional, cell-based;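 note: intracellular parasites grown in NIH/3T3 mouse fibroblasts as host cells; luminescent beta-galactosidase reporter signal from transgenic T. cruzi replicating inside host cells; inhibitors lower the luminescence signal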
[5] = molecular target: Peroxisome proliferator-activated receptor gamma/Nuclear receptor coactivator 3 (Homo sapiens, UniProt P37231); format: functional;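 note: agonist potency for raising coactivator recruitment to the receptor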
[6] = molecular target: Voltage-gated N-type calcium channel alpha-1B subunit/Amyloid beta A4 precursor protein-binding family A member 1 (Homo sapiens, UniProt Q00975+Q02410); format: protein assay
[7] = molecular target: T2, Mannose-6-phosphate isomerase (Homo sapiens, UniProt P34949); test: MPI inhibition at elevated mannose 6-phosphate – biochemical, fluorescence intensity, high mannose 6-phosphate, primary screen (AID 1220)
T2 sequence (P34949 whole entry): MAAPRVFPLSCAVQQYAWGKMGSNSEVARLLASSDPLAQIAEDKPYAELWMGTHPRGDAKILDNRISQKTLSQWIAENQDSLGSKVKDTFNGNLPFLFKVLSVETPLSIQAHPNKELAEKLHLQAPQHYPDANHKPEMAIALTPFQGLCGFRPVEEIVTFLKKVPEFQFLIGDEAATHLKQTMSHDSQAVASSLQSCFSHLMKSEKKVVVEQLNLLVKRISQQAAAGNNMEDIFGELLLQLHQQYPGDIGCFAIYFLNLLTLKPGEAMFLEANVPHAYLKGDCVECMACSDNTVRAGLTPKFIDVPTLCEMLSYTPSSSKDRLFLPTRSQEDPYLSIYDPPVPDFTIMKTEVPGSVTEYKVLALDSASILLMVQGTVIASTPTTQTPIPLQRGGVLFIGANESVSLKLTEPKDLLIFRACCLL

Hexokinase-1 = molecular target: T3, Hexokinase-1 (Homo sapiens, UniProt P19367); test: HK1 enzyme activation by HKDC1 hits – biochemical, selectivity assay for HKDC1 activator project, dose response (AID 504762); format: functional
T3 sequence (P19367 whole entry): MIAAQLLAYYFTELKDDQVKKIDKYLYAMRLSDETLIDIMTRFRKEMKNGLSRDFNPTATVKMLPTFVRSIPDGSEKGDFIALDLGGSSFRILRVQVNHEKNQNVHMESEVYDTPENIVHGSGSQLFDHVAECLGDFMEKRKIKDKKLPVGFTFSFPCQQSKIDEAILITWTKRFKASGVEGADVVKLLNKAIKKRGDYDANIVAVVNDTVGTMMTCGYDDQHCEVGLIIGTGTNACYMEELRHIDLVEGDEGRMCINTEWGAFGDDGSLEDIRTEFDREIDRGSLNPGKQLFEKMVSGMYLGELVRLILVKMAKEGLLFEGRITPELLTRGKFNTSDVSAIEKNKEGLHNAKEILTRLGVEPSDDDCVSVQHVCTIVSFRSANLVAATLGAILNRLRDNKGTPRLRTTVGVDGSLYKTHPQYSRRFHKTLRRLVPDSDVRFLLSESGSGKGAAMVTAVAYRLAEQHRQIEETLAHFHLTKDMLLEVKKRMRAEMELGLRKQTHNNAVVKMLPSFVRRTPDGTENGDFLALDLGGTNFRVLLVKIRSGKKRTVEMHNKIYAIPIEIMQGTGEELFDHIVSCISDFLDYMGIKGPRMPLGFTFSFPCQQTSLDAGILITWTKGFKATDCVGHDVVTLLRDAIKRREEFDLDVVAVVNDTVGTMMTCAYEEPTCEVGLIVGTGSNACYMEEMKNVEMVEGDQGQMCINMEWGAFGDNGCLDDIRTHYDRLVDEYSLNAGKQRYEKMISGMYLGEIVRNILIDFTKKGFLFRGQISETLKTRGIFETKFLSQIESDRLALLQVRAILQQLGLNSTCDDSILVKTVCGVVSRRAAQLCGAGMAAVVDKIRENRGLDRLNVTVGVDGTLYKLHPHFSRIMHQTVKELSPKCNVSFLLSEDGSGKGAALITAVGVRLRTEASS

Voltage-gated N-type calcium channel alpha-1B subunit/Amyloid beta A4 precursor protein-binding family A member 1, sequence (Q00975 whole entry): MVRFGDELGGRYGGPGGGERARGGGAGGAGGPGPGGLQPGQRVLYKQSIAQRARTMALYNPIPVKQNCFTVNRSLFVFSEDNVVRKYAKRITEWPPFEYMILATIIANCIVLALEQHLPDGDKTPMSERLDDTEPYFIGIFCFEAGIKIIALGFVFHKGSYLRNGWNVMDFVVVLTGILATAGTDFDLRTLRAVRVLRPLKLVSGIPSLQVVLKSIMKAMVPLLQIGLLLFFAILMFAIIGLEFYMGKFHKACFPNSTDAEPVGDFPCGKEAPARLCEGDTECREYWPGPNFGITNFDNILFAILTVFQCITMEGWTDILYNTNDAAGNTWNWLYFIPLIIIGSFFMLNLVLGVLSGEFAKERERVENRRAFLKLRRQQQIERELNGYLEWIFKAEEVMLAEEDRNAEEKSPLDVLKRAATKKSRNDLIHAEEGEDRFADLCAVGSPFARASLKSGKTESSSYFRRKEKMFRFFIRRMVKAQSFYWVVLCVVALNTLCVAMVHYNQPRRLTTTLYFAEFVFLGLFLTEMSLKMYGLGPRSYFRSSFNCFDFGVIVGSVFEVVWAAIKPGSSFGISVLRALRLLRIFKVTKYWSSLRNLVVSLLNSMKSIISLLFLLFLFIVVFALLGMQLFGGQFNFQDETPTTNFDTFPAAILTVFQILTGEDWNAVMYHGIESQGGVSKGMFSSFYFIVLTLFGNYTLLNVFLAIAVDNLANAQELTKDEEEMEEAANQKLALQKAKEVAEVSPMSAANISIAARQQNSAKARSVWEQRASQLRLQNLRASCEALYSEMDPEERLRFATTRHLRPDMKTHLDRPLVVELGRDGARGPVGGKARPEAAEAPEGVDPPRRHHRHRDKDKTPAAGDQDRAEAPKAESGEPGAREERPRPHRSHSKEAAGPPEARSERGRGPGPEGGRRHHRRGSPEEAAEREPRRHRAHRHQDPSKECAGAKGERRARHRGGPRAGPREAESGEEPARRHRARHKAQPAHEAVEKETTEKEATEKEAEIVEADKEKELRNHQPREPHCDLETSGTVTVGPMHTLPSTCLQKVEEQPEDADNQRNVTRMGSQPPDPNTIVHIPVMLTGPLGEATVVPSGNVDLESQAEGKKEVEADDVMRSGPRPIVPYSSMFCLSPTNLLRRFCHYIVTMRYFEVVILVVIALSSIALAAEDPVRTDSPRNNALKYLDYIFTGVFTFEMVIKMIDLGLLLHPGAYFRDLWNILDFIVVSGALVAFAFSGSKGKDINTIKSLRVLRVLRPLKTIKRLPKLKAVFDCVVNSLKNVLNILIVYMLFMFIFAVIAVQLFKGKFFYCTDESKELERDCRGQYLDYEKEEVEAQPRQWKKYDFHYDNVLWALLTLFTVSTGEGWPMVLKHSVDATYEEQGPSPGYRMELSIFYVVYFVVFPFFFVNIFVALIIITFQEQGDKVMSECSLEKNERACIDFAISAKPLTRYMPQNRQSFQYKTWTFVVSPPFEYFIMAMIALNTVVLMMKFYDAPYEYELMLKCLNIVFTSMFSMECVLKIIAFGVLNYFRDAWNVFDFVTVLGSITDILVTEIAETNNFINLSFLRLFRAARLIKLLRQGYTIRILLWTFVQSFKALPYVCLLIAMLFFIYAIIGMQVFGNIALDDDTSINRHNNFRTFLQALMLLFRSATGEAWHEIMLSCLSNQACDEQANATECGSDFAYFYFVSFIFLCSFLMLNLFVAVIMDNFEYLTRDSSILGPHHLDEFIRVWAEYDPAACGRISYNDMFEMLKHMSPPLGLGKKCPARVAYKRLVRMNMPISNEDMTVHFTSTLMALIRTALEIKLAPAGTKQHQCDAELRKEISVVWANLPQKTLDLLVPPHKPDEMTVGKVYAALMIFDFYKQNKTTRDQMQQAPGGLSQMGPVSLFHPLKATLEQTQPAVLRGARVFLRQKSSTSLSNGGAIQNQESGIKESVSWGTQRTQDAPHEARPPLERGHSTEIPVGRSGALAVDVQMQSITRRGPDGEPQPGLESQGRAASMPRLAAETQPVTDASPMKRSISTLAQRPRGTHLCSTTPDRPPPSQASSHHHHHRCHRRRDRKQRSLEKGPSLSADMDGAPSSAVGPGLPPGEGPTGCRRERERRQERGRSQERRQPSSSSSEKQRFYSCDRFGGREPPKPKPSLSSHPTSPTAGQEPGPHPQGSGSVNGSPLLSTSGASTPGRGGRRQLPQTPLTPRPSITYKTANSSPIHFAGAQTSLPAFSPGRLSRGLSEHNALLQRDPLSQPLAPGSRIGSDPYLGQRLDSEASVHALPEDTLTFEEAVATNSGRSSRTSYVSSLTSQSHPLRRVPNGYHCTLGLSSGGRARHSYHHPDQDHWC
Voltage-gated N-type calcium channel alpha-1B subunit/Amyloid beta A4 precursor protein-binding family A member 1, sequence (Q02410 whole entry): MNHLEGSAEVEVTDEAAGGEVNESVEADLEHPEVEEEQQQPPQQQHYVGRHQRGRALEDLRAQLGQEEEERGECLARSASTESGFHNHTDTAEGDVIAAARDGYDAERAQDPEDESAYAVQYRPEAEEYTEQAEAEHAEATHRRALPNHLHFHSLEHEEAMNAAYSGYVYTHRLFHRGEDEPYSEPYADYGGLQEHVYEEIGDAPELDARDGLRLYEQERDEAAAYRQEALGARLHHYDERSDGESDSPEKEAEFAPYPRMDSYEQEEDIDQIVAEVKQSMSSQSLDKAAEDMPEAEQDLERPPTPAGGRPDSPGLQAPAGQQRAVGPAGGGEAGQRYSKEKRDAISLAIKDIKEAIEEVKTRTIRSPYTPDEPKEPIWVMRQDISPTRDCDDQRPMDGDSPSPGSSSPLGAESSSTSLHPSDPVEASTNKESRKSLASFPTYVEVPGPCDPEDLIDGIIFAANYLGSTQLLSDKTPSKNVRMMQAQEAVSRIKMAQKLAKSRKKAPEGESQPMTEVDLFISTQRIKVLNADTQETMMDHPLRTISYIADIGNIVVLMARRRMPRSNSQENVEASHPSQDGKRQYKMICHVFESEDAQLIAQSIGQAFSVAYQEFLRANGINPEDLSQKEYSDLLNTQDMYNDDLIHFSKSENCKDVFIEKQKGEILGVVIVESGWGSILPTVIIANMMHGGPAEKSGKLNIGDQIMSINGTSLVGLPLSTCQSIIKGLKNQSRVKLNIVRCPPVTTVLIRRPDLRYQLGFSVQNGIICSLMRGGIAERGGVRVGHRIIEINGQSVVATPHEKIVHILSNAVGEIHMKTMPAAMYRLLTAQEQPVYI
Peroxisome proliferator-activated receptor gamma/Nuclear receptor coactivator 3, sequence (P37231 whole entry): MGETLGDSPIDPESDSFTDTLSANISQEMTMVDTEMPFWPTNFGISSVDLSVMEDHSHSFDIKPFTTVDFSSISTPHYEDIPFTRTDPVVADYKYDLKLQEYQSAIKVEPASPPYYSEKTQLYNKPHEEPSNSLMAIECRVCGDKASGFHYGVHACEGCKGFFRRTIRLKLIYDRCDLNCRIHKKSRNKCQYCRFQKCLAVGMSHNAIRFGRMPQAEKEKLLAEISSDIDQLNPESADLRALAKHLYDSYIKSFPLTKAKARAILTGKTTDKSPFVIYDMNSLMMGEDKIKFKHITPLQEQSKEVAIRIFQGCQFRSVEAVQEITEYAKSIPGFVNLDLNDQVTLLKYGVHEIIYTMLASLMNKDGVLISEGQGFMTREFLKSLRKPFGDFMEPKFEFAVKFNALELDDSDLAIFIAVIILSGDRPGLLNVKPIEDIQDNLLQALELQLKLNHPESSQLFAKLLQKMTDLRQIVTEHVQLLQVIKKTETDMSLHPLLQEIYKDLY
Peroxisome proliferator-activated receptor gamma/Nuclear receptor coactivator 3, sequence (Q9Y6Q9 whole entry, further chain): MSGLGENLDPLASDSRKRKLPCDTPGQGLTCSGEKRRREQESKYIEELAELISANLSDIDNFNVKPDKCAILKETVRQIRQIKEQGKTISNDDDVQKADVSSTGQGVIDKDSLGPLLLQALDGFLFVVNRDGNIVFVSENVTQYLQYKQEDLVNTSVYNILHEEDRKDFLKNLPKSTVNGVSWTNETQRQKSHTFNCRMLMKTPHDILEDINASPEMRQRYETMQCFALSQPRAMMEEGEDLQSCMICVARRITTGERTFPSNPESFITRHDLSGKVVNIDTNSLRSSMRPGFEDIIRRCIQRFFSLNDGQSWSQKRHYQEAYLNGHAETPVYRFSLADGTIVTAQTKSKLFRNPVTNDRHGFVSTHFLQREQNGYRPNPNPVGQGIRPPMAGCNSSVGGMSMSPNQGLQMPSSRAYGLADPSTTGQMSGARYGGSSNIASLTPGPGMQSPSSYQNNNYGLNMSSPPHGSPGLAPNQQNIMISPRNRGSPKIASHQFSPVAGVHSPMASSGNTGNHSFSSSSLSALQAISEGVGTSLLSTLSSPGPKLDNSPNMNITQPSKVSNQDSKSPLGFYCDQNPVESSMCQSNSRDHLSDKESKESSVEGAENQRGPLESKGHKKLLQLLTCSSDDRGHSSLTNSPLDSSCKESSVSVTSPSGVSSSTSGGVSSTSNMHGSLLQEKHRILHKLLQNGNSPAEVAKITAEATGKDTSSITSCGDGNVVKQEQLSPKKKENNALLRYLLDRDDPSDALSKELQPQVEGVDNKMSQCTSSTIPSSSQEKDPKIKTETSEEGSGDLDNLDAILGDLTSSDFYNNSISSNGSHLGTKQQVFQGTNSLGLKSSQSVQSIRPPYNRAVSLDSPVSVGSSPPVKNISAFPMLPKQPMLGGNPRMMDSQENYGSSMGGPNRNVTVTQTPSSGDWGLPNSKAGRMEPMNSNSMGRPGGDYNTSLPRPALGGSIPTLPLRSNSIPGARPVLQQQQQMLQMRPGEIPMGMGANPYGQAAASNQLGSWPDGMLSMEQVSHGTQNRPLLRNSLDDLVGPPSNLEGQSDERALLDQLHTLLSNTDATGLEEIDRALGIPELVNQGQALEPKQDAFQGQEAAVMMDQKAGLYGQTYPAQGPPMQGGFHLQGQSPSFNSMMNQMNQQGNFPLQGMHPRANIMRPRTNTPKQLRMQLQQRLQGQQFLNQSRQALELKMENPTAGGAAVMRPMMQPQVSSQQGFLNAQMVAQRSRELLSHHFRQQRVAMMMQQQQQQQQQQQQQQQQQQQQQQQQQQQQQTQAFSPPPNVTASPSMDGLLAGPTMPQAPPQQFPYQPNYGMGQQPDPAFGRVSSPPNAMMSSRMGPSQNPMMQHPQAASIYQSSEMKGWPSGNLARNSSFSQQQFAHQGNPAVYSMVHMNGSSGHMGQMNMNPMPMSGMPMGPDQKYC

## O=C(Nc1ccccc1Cl)/C(Cl)=C(\Cl)[S+]([O-])c1ccccc1 (centres undefined)
[1]
  IC50: 61.9 µM (inactive)
[2]
  AC50: 10.8 µM (active)
Fatty acid synthase
  IC50: 3.28 µM (active)

## CCCCCCCCCCCCCCCCn1cc[n+](C)c1
[3]
  EC50: > 300 µM (inconclusive)
[4]
  EC50: < 100 nM (active) and 103 nM (active)

## Cc1cc(C)nc(/N=c2/ssnc2Cl)c1
[5]
  EC50: > 79.4 µM (not active)
[6]
  IC50: > 50 µM (inactive)
[7]
  IC50: 28.8 µM (active)
Hexokinase-1
  EC50: 39.9 µM (inactive)
